In publication PMC10539439 (Pharmacological Reports, 2023):
Several values for one entry are separate records, joined by “and”; a condition that tells them apart may be missing. Equal entries are not always repeated. Where two headings read alike, the source gives them in different places.

What was measured:
α2A-adrenoceptor = molecular target: T1, α2A-adrenoceptor (Homo sapiens, UniProt P08913); test: Intrinsic activity, Tango beta-lactamase reporter assay; type: cell-based
T1 sequence (P08913 1-465): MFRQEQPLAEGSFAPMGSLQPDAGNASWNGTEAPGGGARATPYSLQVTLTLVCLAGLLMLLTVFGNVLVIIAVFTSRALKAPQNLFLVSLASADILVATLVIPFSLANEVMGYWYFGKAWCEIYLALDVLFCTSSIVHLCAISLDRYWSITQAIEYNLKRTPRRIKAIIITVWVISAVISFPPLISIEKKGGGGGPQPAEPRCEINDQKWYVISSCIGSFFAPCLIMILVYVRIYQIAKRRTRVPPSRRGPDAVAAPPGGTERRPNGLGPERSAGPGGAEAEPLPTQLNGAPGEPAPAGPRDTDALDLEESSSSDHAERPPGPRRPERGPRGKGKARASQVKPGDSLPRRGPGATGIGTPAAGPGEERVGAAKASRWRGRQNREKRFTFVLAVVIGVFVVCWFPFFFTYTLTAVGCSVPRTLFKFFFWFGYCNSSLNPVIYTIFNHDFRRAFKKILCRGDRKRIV
Procedure: The intrinsic activity at α2A-adrenoceptor was assessed by the Tango assay technology that uses a mammalian-optimized beta-lactamase (bla) reporter gene combined with an FRET-enabled substrate to provide reliable and sensitive detection in cells. Cells are loaded with an engineered fluorescent substrate containing two fluorophores, coumarin, and fluorescein. In the absence of bla expression, the substrate molecule remains intact. In this state, excitation of the coumarin results in a transfer of fluorescence resonance energy to the fluorescein moiety and emission of green fluorescent light. However, in the presence of bla expression, the substrate is cleaved, separating the fluorophores and disrupting energy transfer. Excitation of the coumarin in the presence of bla enzyme activity results in a blue fluorescence signal.
Intrinsic activity assay was performed according to the manufacturer of the assay kit (Invitrogen, Life Technologies). Cells were harvested and resuspended in an assay medium at a density of 312,500 cells/ml. 32 μL per well of cell suspension was added to the test compound wells, the unstimulated control wells, and the stimulated control wells, and incubated for 16–24 h. To perform an agonist assay, 8 μL of 5 × of agonist in the assay medium was added to the cells. […] Then, the agonist and antagonist plates were incubated in a humidified incubator at 37 °C/5% CO2 for 5 h. After the incubation, 8 μL of LiveBLAzer™-FRET B/G substrate mixture (CCF4-AM) was loaded into cells in the absence of direct strong lighting, covered, and incubated at room temperature for 2 h.

α2-adrenoceptor = molecular target: T2, α2-adrenoceptor (Rattus norvegicus, UniProt P22909); test: Competitive radioligand-binding assay, [3H]clonidine; conditions: for CPM: ADRA2, experiments 1-3, duplicates; for Affinity towards α2-adrenoceptors: summary table
T2 sequence (P22909 1-465): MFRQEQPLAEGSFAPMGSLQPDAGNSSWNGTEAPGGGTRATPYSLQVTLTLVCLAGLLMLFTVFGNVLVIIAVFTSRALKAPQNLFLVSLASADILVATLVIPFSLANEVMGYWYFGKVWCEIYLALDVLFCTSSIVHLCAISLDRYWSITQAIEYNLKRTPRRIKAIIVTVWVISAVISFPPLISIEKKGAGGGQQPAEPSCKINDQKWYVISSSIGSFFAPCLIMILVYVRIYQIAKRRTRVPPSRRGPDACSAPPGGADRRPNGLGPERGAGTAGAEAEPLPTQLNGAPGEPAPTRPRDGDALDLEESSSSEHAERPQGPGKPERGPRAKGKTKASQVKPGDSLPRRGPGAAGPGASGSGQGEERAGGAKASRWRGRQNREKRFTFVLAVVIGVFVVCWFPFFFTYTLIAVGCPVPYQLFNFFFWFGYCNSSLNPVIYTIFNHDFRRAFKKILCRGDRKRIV
Procedure: 10 mM stock solutions of test compounds were prepared in DMSO. Serial dilutions of compounds were prepared in 96-well microplate in assay buffers using an automated pipetting system epMotion 5070 (Eppendorf, Poland). Each compound was tested in 6 concentrations of 1.0E-05 to 1.0E-10 M (final concentration).
Affinity towards α1- and α2-adrenoceptors was evaluated using the competitive radioligand-binding assay. Experiments were conducted in the rat cerebral cortex. Radioligand [3H]prazosin (84,2 Ci/mmol, α1-adrenoceptor, PerkinElmer, Poland, NET823001MC) and [3H]clonidine (70.5 Ci/mmol, α2-adrenoceptor, PerkinElmer, Poland, NET613250UC) were used. The membrane preparation and the assay procedure were carried out accordingly as previously published. Radioactivity was counted on the MicroBeta2 scintillation counter (PerkinElmer, Poland). Data were fitted to a one-site curve-fitting equation with Prism 8 (GraphPad Software, USA), and Ki values were estimated from the Cheng–Prusoff equation.

[1] = ADRAA2A, agonist, concentration 1e-8
[2] = ADRAA2A, agonist, concentration 1e-7
[3] = ADRAA2A, agonist, concentration 1e-6

| SMILES | Intrinsic activity at α2A-adrenoceptors (in words) (α2A-adrenoceptor) | % of max response (α2A-adrenoceptor; [1]) | % of max response (α2A-adrenoceptor; [2]) | % of max response (α2A-adrenoceptor; [3]) | CPM (α2-adrenoceptor; log of molar concentration -6) | CPM (α2-adrenoceptor; log of molar concentration -7) | CPM (α2-adrenoceptor; log of molar concentration -8) | CPM (α2-adrenoceptor; log of molar concentration -10) | Affinity towards α2-adrenoceptors (α2-adrenoceptor) | further results |
| --- | --- | --- | --- | --- | --- | --- | --- | --- | --- | --- |
| Cl.N=C(N)NN=Cc1c(Cl)cc(O)cc1Cl [4-OH-Guanabenz, 2-[(2,6-Dichloro-4-hydroxyphenyl)methylene]hydrazinecarboximidamide Hydrochloride] | Partial agonist | -0.7437% and -0.7189% and -0.7313% and -0.7282% | 2.887% and 2.799% and 3.482% | 33.4463% and 31.1405% and 34.9698% | 132 CPM and 157 CPM and 112 CPM and 131 CPM and 141 CPM | 198 CPM and 156 CPM and 131 CPM and 190 CPM and 205 CPM | 314 CPM and 316 CPM and 394 CPM and 302 CPM and 300 CPM | 404 CPM and 380 CPM and 358 CPM and 403 CPM and 400 CPM and 370 CPM | + | % of max response (α2A-adrenoceptor; ADRAA2A, agonist, concentration 1e-5): 37.4215% and 35.9932% and 36.5487%; EC50 (α2A-adrenoceptor; agonist assay): 316 nM; activity relative to full agonist brimonidine (α2A-adrenoceptor; agonist assay, maximal activity reached): 30%; Emax (α2A-adrenoceptor; read-out: % of max response, ADRAA2A, agonist, concentration 1e-7): 2.71%; Emax (α2A-adrenoceptor; read-out: % of max response, ADRAA2A, agonist, concentration 1e-6): 28.8%; Emax (α2A-adrenoceptor; read-out: % of max response, ADRAA2A, agonist, concentration 1e-5): 34.6%; affinity toward α2-adrenoreceptor (in words) (α2-adrenoceptor): high affinity; CPM (α2-adrenoceptor; log of molar concentration -5): 78 CPM and 116 CPM and 96 CPM and 117 CPM and 113 CPM and 111 CPM; CPM (α2-adrenoceptor; log of molar concentration -9): 420 CPM and 340 CPM and 383 CPM and 296 CPM and 320 CPM and 437 CPM |
| N=C(N)N/N=C/c1c(Cl)cccc1Cl [Guanabenz] | Full agonist | 28.3106% and 18.1657% and 31.6251% | 69.7622% and 66.4917% and 70.9692% | 80.6636% and 82.7247% and 76.4282% | 89 CPM and 117 CPM and 99 CPM and 116 CPM and 125 CPM and 115 CPM | 120 CPM and 135 CPM and 148 CPM and 196 CPM and 133 CPM | 152 CPM and 165 CPM and 205 CPM and 265 CPM and 170 CPM | 320 CPM and 325 CPM and 437 CPM and 458 CPM and 265 CPM and 270 CPM | + | % of max response (α2A-adrenoceptor; ADRAA2A, agonist, concentration 1e-11): -0.6454% and -0.8183% and -1.252% and -0.7319%; % of max response (α2A-adrenoceptor; ADRAA2A, agonist, concentration 1e-10): -1.12% and -1.114% and -1.036% and -1.117%; % of max response (α2A-adrenoceptor; ADRAA2A, agonist, concentration 1e-9): 0.5496% and 0.2076% and -0.728% and 0.3786%; Emax (α2A-adrenoceptor; ADRAA2A, agonist, concentration 1e-8, read-out: % of max response): 34.9%; Emax (α2A-adrenoceptor; ADRAA2A, agonist, concentration 1e-7, read-out: % of max response): 72.2%; Emax (α2A-adrenoceptor; ADRAA2A, agonist, concentration 1e-6, read-out: % of max response): 72.2% |
